Test results: paper PMC11357638 (Molecules, 2024)
Substitutions are numbered along the chain they refer to. “And” between values parts separate entries of the source, which are not always exact repeats. Equal entries are not always repeated.

Columns and labels:
[1] = target: T1, hTRPV3 L670A mutant (Homo sapiens, UniProt Q8NET8, L670A); test: Whole-cell patch-clamp of hTRPV3 L670A mutant in HEK293T cells; format: cell-based; conditions: 50 μM 2-APB
T1 construct: expressed in transfected cells; host or cells: HEK293T
T1 sequence (Q8NET8 1-790 L670A): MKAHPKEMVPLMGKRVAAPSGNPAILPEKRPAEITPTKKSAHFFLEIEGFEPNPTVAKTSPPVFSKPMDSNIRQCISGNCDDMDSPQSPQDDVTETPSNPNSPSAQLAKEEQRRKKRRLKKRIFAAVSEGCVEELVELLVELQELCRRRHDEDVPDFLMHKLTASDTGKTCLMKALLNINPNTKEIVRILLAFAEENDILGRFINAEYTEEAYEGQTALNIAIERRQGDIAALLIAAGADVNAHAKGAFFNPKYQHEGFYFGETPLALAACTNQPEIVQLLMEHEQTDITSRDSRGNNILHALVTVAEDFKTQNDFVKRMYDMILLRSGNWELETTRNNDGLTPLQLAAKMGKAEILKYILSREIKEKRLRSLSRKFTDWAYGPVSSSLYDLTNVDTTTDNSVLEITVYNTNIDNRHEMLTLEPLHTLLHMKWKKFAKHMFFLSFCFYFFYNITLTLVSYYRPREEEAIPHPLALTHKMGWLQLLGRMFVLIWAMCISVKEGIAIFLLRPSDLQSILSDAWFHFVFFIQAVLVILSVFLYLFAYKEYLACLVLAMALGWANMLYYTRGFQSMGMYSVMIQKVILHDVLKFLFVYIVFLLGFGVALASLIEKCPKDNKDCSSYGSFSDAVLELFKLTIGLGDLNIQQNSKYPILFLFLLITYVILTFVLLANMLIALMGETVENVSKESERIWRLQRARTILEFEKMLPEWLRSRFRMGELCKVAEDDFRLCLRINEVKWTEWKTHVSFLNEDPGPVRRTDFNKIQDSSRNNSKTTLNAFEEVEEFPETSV

[2] = target: T2, hTRPV3 single channel (Homo sapiens, UniProt Q8NET8); test: Inside-out single-channel recording of hTRPV3; format: cell-based; conditions: CA at 500 μM co-applied with 50 μM 2-APB, −60 mV
T2 construct: expressed in transfected cells; host or cells: HEK293T
T2 sequence (Q8NET8 1-790): T1 sequence (Q8NET8 1-790 L670A) with A670L

[3] = system: TRPV3-mediated skin inflammation induced by carvacrol; test: Mouse model of dorsal skin dermatitis induced by skin sensitizer carvacrol; format: in vivo, C57BL/6J mice; conditions: mice, subcutaneous CA 0.1 and 1 mM (100 μL) once a day for 5 days, topical 2% carvacrol, versus carvacrol model group
[4] = target: T3, hTRPV3 T636A mutant (Homo sapiens, UniProt Q8NET8, T636A); test: Whole-cell patch-clamp of hTRPV3 T636A mutant in HEK293T cells; format: cell-based
T3 construct: expressed in transfected cells; host or cells: HEK293T
T3 sequence (Q8NET8 1-790 T636A): T1 sequence (Q8NET8 1-790 L670A) with T636A, A670L

- channel current inhibition by 500 μM CA compared to WT [1]: no significant difference
- open frequency (Freq) [2]: 15.96 ± 2.25 Hz
- IC50 ([4]; T636A hTRPV3, 50 μM 2-APB, +80 mV, Hill fit, read-out: IC50, inhibition of T636A mutant outward currents): > 1000 µM and 1000 µM
- channel current inhibition by 500 μM CA compared to WT ([4]; T636A mutant, 50 μM 2-APB, 500 μM CA): significantly diminished
SMILES: O=C(O)/C=C/c1ccc(O)c(O)c1 [CA, caffeic acid]
- epidermal thickness ([3]; H&E sections): reduced epidermal thickness
- dermatitis scores [3]: significantly reduced the dermatitis scores
